Laboratory results as given in patent US10973784B2, “Compositions and methods for treating Alzheimer's disease and Parkinson's disease” (Biotie Therapies, Inc., priority 2016, dated 2021).
Like-named read-outs stand apart in the source and are kept apart here.

Assay: Pharmacokinetic analysis of SYN120 tablets, single oral dose (Example 8)
Assay type: in vivo, human
Conditions: human, plasma
Protocol: Pharmacokinetic (PK) analysis was performed on 42 subjects (36 males; 6 females) who received SYN120 oral tablets. In this study, subjects received a single oral dose of SYN120 at one of the following doses: 2 mg; 10 mg; 30 mg; 100 mg; 300 mg; and 600 mg. The SYN120 oral tablets used in this study were formulated for immediate release at tablet strengths of 2 mg, 10 mg, and 50 mg. The tablets were formulated using lactose monohydrate, corn starch, sodium starch glycolate, povidone, sodium lauryl sulfate, magnesium stearate, and the coating agent Opadry Yellow. Blood samples were collected at predose and 0.5, 1, 1.5, 2, 3, 4, 6, 8, 12, 16, 24, 32, 36, 48, and 72 hours postdose. During the treatments at 100 mg and higher, the protocol was amended to include an additional blood sample on Study Day 7 (nominal time of 151 hours). Following oral administration, SYN120 absorption was rapid and plasma levels were measurable in all subjects at the first time point (0.5 hours).
Table 14 below provides a summary of the mean PK parameters of plasma SYN120 for all doses.

[1] = female, oral, 100 mg single dose, females, arithmetic mean
[2] = female, single oral dose 100 mg (females), Cohort E, geometric mean
[3] = single oral dose 2 mg, Cohort A, geometric mean
[4] = single oral dose 10 mg, Cohort B, geometric mean
[5] = single oral dose 30 mg, Cohort C, geometric mean
[6] = single oral dose 300 mg, Cohort F, geometric mean
[7] = single oral dose 600 mg, Cohort G, geometric mean
[8] = male, oral, 100 mg single dose, males, arithmetic mean

half-life (both sexes, oral, range across single-dose treatment groups, read-out: mean apparent elimination half-life): 8.45 to 12.4 h | Tmax (both sexes, oral, single doses of 100 mg and above, read-out: Tmax estimates): ~4 h | AUC(0-t) (female, oral, 100 mg, 100 mg single dose, females, arithmetic mean, read-out: AUC0-24): 4670 ± 2990 ng·h/mL | AUC(0-t) (female, oral, 100 mg, 100 mg single dose, females, arithmetic mean, read-out: AUC0-t): 5960 ± 3650 ng·h/mL | AUC(0-inf) [1]: 5980 ± 3660 ng·h/mL | Cmax [1]: 532 ± 218 ng/mL | AUC(0-t) (female, po, 100 mg, single oral dose 100 mg (females), Cohort E, geometric mean, read-out: AUC0-24): 4000 ng·h/mL | AUC(0-t) (female, po, 100 mg, single oral dose 100 mg (females), Cohort E, geometric mean, read-out: AUC0-t): 5100 ng·h/mL | half-life (female, single oral dose 100 mg (females), Cohort E, arithmetic mean ±SD, read-out: t1/2 (converted)): 12.4 h | AUC(0-inf) [2]: 5120 ng·h/mL | Cmax [2]: 498 ng/mL | Tmax (female, single oral dose 100 mg (females), Cohort E, median, read-out: Tmax): 2.51 h | half-life (oral, general statement, read-out: elimination half-life (t1/2)): 8 to 12 h | Tmax (oral, single dose 2 to 30 mg, on average, read-out: Tmax): ~2 h | AUC(0-t) (po, 2 mg, single oral dose 2 mg, Cohort A, geometric mean, read-out: AUC0-24): 118 ng·h/mL | AUC(0-t) (po, 2 mg, single oral dose 2 mg, Cohort A, geometric mean, read-out: AUC0-t): 139 ng·h/mL | AUC(0-t) (po, 10 mg, single oral dose 10 mg, Cohort B, geometric mean, read-out: AUC0-24): 351 ng·h/mL | AUC(0-t) (po, 10 mg, single oral dose 10 mg, Cohort B, geometric mean, read-out: AUC0-t): 384 ng·h/mL | AUC(0-t) (po, 30 mg, single oral dose 30 mg, Cohort C, geometric mean, read-out: AUC0-24): 1540 ng·h/mL | AUC(0-t) (po, 30 mg, single oral dose 30 mg, Cohort C, geometric mean, read-out: AUC0-t): 1750 ng·h/mL | AUC(0-t) (po, 300 mg, single oral dose 300 mg, Cohort F, geometric mean, read-out: AUC0-24): 21300 ng·h/mL | AUC(0-t) (po, 300 mg, single oral dose 300 mg, Cohort F, geometric mean, read-out: AUC0-t): 27400 ng·h/mL | AUC(0-t) (po, 600 mg, single oral dose 600 mg, Cohort G, geometric mean, read-out: AUC0-24): 27600 ng·h/mL | AUC(0-t) (po, 600 mg, single oral dose 600 mg, Cohort G, geometric mean, read-out: AUC0-t): 42500 ng·h/mL | half-life (single oral dose 2 mg, Cohort A, arithmetic mean ±SD, read-out: t1/2 (converted)): 11.4 ± 5.11 h | AUC(0-inf) [3]: 146 ng·h/mL | Cmax [3]: 11.8 ng/mL | Tmax (single oral dose 2 mg, Cohort A, median, read-out: Tmax): 2.02 h | half-life (single oral dose 10 mg, Cohort B, arithmetic mean ±SD, read-out: t1/2 (converted)): 8.45 ± 2.31 h | AUC(0-inf) [4]: 389 ng·h/mL | Cmax [4]: 48.7 ng/mL | Tmax (single oral dose 10 mg, Cohort B, median, read-out: Tmax): 1.76 h | half-life (single oral dose 30 mg, Cohort C, arithmetic mean ±SD, read-out: t1/2 (converted)): 8.92 ± 1.39 h | AUC(0-inf) [5]: 1770 ng·h/mL | Cmax [5]: 179 ng/mL | Tmax (single oral dose 30 mg, Cohort C, median, read-out: Tmax): 2.26 h | half-life (single oral dose 300 mg, Cohort F, arithmetic mean ±SD, read-out: t1/2 (converted)): 9.58 ± 3.46 h | AUC(0-inf) [6]: 27400 ng·h/mL | Cmax [6]: 1730 ng/mL | Tmax (single oral dose 300 mg, Cohort F, median, read-out: Tmax): 3.53 h | half-life (single oral dose 600 mg, Cohort G, arithmetic mean ±SD, read-out: t1/2 (converted)): 12 ± 4.81 h | AUC(0-inf) [7]: 42900 ng·h/mL | Cmax [7]: 2080 ng/mL | Tmax (single oral dose 600 mg, Cohort G, median, read-out: Tmax): 4.51 h | AUC(0-t) (male, oral, 100 mg, 100 mg single dose, males, arithmetic mean, read-out: AUC0-24): 6470 ± 3330 ng·h/mL | AUC(0-t) (male, oral, 100 mg, 100 mg single dose, males, arithmetic mean, read-out: AUC0-t): 7980 ± 4800 ng·h/mL | AUC(0-inf) [8]: 8060 ± 4880 ng·h/mL | Cmax [8]: 623 ± 180 ng/mL
Structure (SMILES): NC(=O)NC[C@@H]1CCCc2cc(S(=O)(=O)c3cccc(F)c3)ccc21 [SYN120]
